This is an account of results in paper PMC9645390, “Amphiphilic stilbene derivatives attenuate the neurotoxicity of soluble Aβ42 oligomers by controlling their interactions with cell membranes” (Chemical Science, 2022).

Assay [1] has as its system Cu2+–Aβ42 species in Neuro2A cells. Nature of the assay: Cu2+-Aβ42-induced toxicity in Neuro2A cells (Alamar Blue). Format: cell-based, mouse. The note with it: [Aβ42] = [Cu2+] = 40 μM, compound 10 μM (ZY-12-OMe 5 μM), 40 h. On the procedure:
As mentioned above, compounds that are not cytotoxic at 10 μM, including ZY-12-MT, ZY-15-MT, ZY-15-OMe, ZY-17-MT, ZY-5-MT, ZY-5-DT, ZY-5-OMe, and ZY-12-OMe, were chosen for this study. Firstly, during the control studies, we observed that monomeric Aβ42 led to negligible neurotoxicity. Nevertheless, in the presence of both Cu^2+ and monomeric Aβ42, there was a significant cell death, which is likely due to the Cu^2+ associated neurotoxic Aβ42 oligomers formation.[46] […] According to the docking results, ZY-12-MT, ZY-15-OMe, ZY-15-MT, and ZY-5-OMe interact with Aβ42 tetramers mainly through residues His6, Asp7, Tyr10 (via hydrogen bonds), and Tyr10 (via π–π interactions). Some reports have also shown that His6, Asp7, and Tyr10 are potentially involved in the Cu–Aβ interactions, which explains why the compounds are able to attenuate the Cu–Aβ toxicity.[48]
Fig. 9 Cell viability results upon incubation of Neuro2A cells with monomeric Aβ42 in the presence or absence of metal ions and amphiphilic compounds. Concentrations: [Aβ42] = 40 μM, [Cu^2+] = 40 μM, [ZY-12-MT] = [ZY-15-OMe] = [ZY-15-MT] = [ZY-17-MT] = [ZY-5-OMe] = [ZY-5-MT] = [ZY-5-DT] = 10 μM, [ZY-12-OMe] = 5 μM. The error bars represent the standard deviation from five independent experiments, and the statistical analysis was evaluated according to one-way ANOVA (*p < 0.05).
Alamar Blue assay was chosen for the cytotoxicity studies.3 Mouse neuroblastoma Neuro2A (N2A) cells were grown with DMEM/10% FBS in a petri dish at 37 °C in a humidified atmosphere with 5% CO2. Then N2A cells were seeded in a 96-well plate (1.0 × 10^4/well). After 24 h incubation, cell media was changed to DMEM/N-2, and N2A cells were incubated for another 1 h. […]
For the Cu2+-Aβ-induced toxicity studies, cells were treated monomeric Aβ42, Cu2+, monomeric Aβ42 + Cu2+, and monomeric Aβ42 + Cu2+ + compounds, monomeric Aβ42 + Cu2+ + copper chelators (Me2HTACN or Me3TACN), respectively. After 40 h incubation, Alamar Blue solution (10 μL) was added, and the cells were incubated for another 90 min at 37 °C. The fluorescence intensity of each well was measured at 590 nm (excitation wavelength = 560 nm). […]
10. The effect of copper chelators on Cu2+-Aβ42 neurotoxicity
Figure S8. Cell viability results upon incubation of Neuro2A cells with 10 μM copper chelators (Me2HTACN or Me3TACN) in the presence or absence of 40 μM (Aβ42 + Cu2+). The error bars represent the standard deviation from five independent experiments, and the statistical analysis was evaluated according to one-way ANOVA. […]
A general note: The colour change of resazurin is a common sign of viable cells or microbes.

Assay [2] deals with T1, Aβ plaques in 5xFAD mice brain sections (Homo sapiens, UniProt P05067).
T1 construct: aggregated Aβ species were commonly observed in brain sections from 5xFAD transgenic mice; tissue Jackson Laboratories; host or cells: brain sections of 9-month-old 5xFAD transgenic mice
T1 sequence (P05067 672-713 limits assumed): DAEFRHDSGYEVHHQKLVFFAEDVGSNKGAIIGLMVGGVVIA
Description: Fluorescence imaging of 5xFAD mouse brain sections, colocalization with Congo Red. To be noted: 9-month-old 5xFAD brain sections; compound 5 μM, Congo red 2.5 μM. The procedure:
In order to confirm that the compounds can also bind to native Aβ species, brain sections collected from 9-month-old 5xFAD transgenic mice have been employed in the fluorescence imaging studies. […] The brain sections were first incubated with our compounds, followed by Congo Red (CR), which is a well-established fluorescent probe that can bind to Aβ plaques.[34] The treated brain sections were then imaged using fluorescence microscope. […] Immunostaining with the CF594-conjugated HJ 3.4 antibody (CF594-HJ3.4) was also performed to confirm that these six compounds can bind to Aβ species specifically in the brain sections (Fig. 5). Moreover, the log D values of the compounds were also measured by octanol-PBS partition assays.[35]
Fig. 4 Fluorescence microscopy images of 5xFAD mice brain sections co-incubated with amphiphilic compounds (top), Congo red (middle) and merged images (bottom, along with the Parson's correlation coefficients R). Concentrations: [amphiphilic compounds] = 5 μM, [Congo red] = 2.5 μM; scale bar: 125 μm. TEXT PRINTED IN THE PICTURE: ZY-5-MT: Merged R= 0.84 | ZY-12-DT: Merged R= 0.52 | ZY-12-OMe: Merged R= 0.77 | ZY-15-OMe: Merged R= 0.77 | ZY-17-DT: Merged R= 0.77 | ZY-17-OMe: Merged R= 0.72 […]
Histological Staining of 5×FAD Mice Brain Sections
5xFAD transgenic mice brain sections were blocked with bovine serum albumin (2% BSA in PBS, pH 7.4, 10 min). Then the mice brain sections were transferred to a PBS solution of the compound and incubated for 1 h. After which, the brain sections were transferred to a PBS solution of Congo Red or antibody HJ 3.4 (Professor David Holtzman, 1 μg/ml) and incubated for another 1 h. Then, the brain sections were treated with BSA again (5 min) followed by washing with PBS (3 × 2 min), DI water (3 × 2 min). Finally, the mice brain sections were mounted with non-fluorescent mounting media, and the images were obtained by using EVOS FL Auto 2. ImageJ Fiji program was used for colocalization analysis and determination of the Pearson’s correlation coefficient. The primary

As for `COc1cc(/C=C/c2ccc(-c3ccc(N(C)C)cc3)s2)cc(CN2CCN(C)CCN(C)CC2)c1O` [ZY-5-OMe], the “effect on Cu2+–Aβ42-induced toxicity (cell viability, in words)” value (“effect on Cu2+–Aβ42-induced toxicity” below) in assay [1] was “could significantly increase cell viability”.

`CN1CCN(C)CCN(Cc2cc(-c3ccc(/C=C/c4ccc(N(C)C)cc4)s3)ccc2O)CC1` [ZY-12-MT]: in assay [1], the “effect on Cu2+–Aβ42-induced toxicity” value is listed as “could significantly increase cell viability”. Regarding `CN1CCN(C)CCN(Cc2cc(/C=C/c3ccc(-c4ccc(C=O)cc4)s3)ccc2O)CC1` [ZY-15-MT], the “effect on Cu2+–Aβ42-induced toxicity” value in assay [1] is listed as “could significantly increase cell viability”. As to `COc1cc(/C=C/c2ccc(-c3ccc(C=O)cc3)s2)cc(CN2CCN(C)CCN(C)CC2)c1O` [ZY-15-OMe], the “effect on Cu2+–Aβ42-induced toxicity” value in assay [1] is “could significantly increase cell viability”. Also, in assay [2], the “Pearson's correlation coefficient R, colocalization with Congo Red” value (from here on “Pearson's correlation coefficient R”) is recorded as 0.77. Turning to `COc1cc(OC)cc(-c2ccc(/C=C/c3cc(CN4CCN(C)CCN(C)CC4)c(O)c(CN4CCN(C)CCN(C)CC4)c3)cc2)c1` [ZY-17-DT], the “Pearson's correlation coefficient R” value in assay [2] turned out to be 0.77. Take `COc1cc(OC)cc(-c2ccc(/C=C/c3cc(CN4CCN(C)CCN(C)CC4)c(O)c(OC)c3)cc2)c1` [ZY-17-OMe]: the “Pearson's correlation coefficient R” value in assay [2] is given as 0.72.
